Data set [1] concerns Human immunodeficiency virus 1. In words: Antiviral activity against HIV-1 RF infected in human JM1 cells. Format: functional, organism-based. Particulars: Human immunodeficiency virus 1, RF.
A short description of data set [2]: Cytotoxicity against human MT4 cells by MTT assay. It counts as toxicity, cell-based. Background: Formazan colour is commonly taken as a measure of viable cells.
Data set [3] has as its system Human immunodeficiency virus 1. In words: Antiviral activity against HIV-1 NL 4-3 (X4) infected in human MT4 cells assessed as inhibition of virus induced cytopathic effect by MTT assay. It counts as functional, organism-based. Particulars: Human immunodeficiency virus 1, NL 4-3 (X4).
Data set [4] relates to Human immunodeficiency virus 1. In words: Antiviral activity against HIV-1 NL 4-3 (X4) infected in human TZM-bl cells assessed as inhibition of virus induced cytopathic effect by luciferase based assay. Particulars: Human immunodeficiency virus 1, NL 4-3 (X4). It counts as functional, organism-based. (Protection from cytopathic effect is a common read-out in antiviral testing.)

Data set [5] can be described thus: Selectivity index, ratio of CC50 for cytotoxicity against human TZM-bl cells to EC50 for antiviral activity against HIV-1 NL 4-3 (X4) infected in human TZM-bl cells. Format: toxicity, cell-based. Particulars: read-out: Ratio CC50/EC50.
Data set [6] in a line: Selectivity index, ratio of CC50 for cytotoxicity against human MT4 cells to EC50 for antiviral activity against HIV-1 NL 4-3 (X4) infected in human MT4 cells. Particulars: read-out: Ratio CC50/EC50. Format: toxicity, cell-based.
The nature of data set [7]: Selectivity index, ratio of CC50 for cytotoxicity against human TZM-bl cells to EC50 for antiviral activity against HIV-1 Bal (R5) infected in human TZM-bl cells. Format: toxicity, cell-based. Particulars: read-out: Ratio CC50/EC50.
Data set [8] relates to Human immunodeficiency virus 1. Put plainly: Antiviral activity against HIV-1 Bal (R5) infected in human TZM-bl cells assessed as inhibition of virus induced cytopathic effect by luciferase based assay. Format: functional, organism-based. Particulars: Human immunodeficiency virus 1, Bal (R5).
The nature of data set [9]: Cytotoxicity against human TZM-bl cells by luciferase assay. Format: toxicity, cell-based.
Data set [10] is described as follows: Selectivity index, ratio of CC50 for cytotoxicity against human Huh-7 cells to EC50 for Dengue virus 2 New Guinea C infected in human Huh-7 cells. It counts as toxicity, cell-based. Particulars: read-out: Ratio CC50/EC50.
In another data set the test system is dengue virus type 2. In words: Antiviral activity against Dengue virus 2 New Guinea C infected in human Huh-7 cells assessed as reduction in virus induced cytopathic effect incubated for 3 days by trypan blue staining based assay. It counts as functional, organism-based. Particulars: Huh-7, 72 h.
Data set [11] is described as follows: Cytotoxicity against human Huh-7 cells assessed as reduction in cell viability incubated for 3 days by MTT assay. It counts as toxicity, cell-based. Particulars: time 3 day.
For the next data set, the system named is Human alphaherpesvirus 2. Put plainly: Antiviral activity against HSV-2 UW 268 infected in MDCK cells assessed as inhibition of viral replication measured after 24 hrs by plaque reduction assay. Format: functional, organism-based. Particulars: Human alphaherpesvirus 2, UW 268, MDCK.
The test system of the next data set is Human alphaherpesvirus 1. Put plainly: Antiviral activity against HSV-1 KOS infected in MDCK cells assessed as inhibition of viral replication measured after 24 hrs by plaque reduction assay. Format: functional, organism-based. Particulars: Human alphaherpesvirus 1, KOS. (In a plaque reduction assay, fewer plaques than in the control indicate reduced infectivity or spread.)

Data set [12] relates to Influenza A virus. Put plainly: Antiviral activity against influenza A virus A/NWS/33 (H1N1) infected in MDCK cells. It counts as functional, organism-based.
Data set [13] addresses Neuraminidase (Influenza A virus (A/Puerto Rico/8/1934(H1N1)), UniProt P03468). Put plainly: Inhibition of influenza A virus A/PR/8/34 (H1N1) neuraminidase.
Data set [14] is described as follows: Selectivity index, ratio of CC50 for cytotoxicity against MDCK cells to IC50 for influenza A virus A/Guangdong/243/72 ([…]) infected in MDCK cells. Format: toxicity, cell-based. Particulars: dog, read-out: Ratio CC50/IC50.
Data set [15] has as its system Influenza A virus. In words: Antiviral activity against influenza A virus A/Guangdong/243/72 ([…]) infected in MDCK cells assessed as inhibition of virus-induced cytopathic effect. Format: functional, organism-based.
Data set [16] deals with Human immunodeficiency virus 1. Put plainly: Antiviral activity against HIV-1 infected in human leucocytes assessed as inhibition of viral replication. Format: functional. Particulars: Human immunodeficiency virus 1, Leucocyte.
Data set [17] relates to Human immunodeficiency virus 1. In words: Antiviral activity against HIV-1 infected in human macrophages assessed as inhibition of viral replication. It counts as functional. Particulars: Human immunodeficiency virus 1, Macrophage.
Data set [18] concerns Hepatitis C virus. Put plainly: Antiviral activity against Hepatitis C virus genotype 2 Rluc-J6/JFH1 infected in human Huh7.5 cells assessed as reduction in viral replication treated for 72 hrs by qRT-PCR analysis. It counts as functional, organism-based, Hepacivirus hominis. Particulars: genotype 2 Rluc-J6/JFH1, Huh7.5, 72 h.
Data set [19] has as its system Hepatitis C virus. In words: Antiviral activity against Hepatitis C virus infected in human Huh7.5 cells assessed as reduction in viral replication. It counts as functional, organism-based, Hepacivirus hominis.
The nature of data set [20]: Cytotoxicity against human Huh7.5 cells infected with Hepatitis C virus assessed as reduction in cell viability. It counts as toxicity, cell-based, Huh-7.5.
The test system of data set [21] is Hepatitis C virus. Put plainly: Antiviral activity against Hepatitis C virus genotype 2 J6/JFH1 infected in human Huh7.5 cells assessed as reduction in viral replication treated for 72 hrs by qRT-PCR analysis. Particulars: genotype 2 J6/JFH1, Huh7.5, 72 h. Format: functional, organism-based, Hepacivirus hominis.
The subject of data set [22] is Hepatitis C virus. In words: Antiviral activity against Hepatitis C virus genotype 1 Bart791 infected in human Huh7.5 cells assessed as reduction in viral replication treated for 72 hrs by qRT-PCR analysis. Particulars: genotype 1 Bart791, Huh7.5, 72 h. Format: functional, organism-based, Hepacivirus hominis.

In brackets after ≈: the same amount, converted by molar mass.

The term IC50 denotes the concentration at which inhibition is half-maximal. By CC50 is commonly meant the concentration giving 50% cytotoxicity. As a reminder, the EC50 is the concentration that produces a half-maximal response. As usually defined, the EC90 is the point of the concentration-response curve where the effect stands at 90%.

Neuraminidase (Influenza A virus (A/Puerto Rico/8/1934(H1N1)), UniProt P03468), sequence (P03468 whole entry): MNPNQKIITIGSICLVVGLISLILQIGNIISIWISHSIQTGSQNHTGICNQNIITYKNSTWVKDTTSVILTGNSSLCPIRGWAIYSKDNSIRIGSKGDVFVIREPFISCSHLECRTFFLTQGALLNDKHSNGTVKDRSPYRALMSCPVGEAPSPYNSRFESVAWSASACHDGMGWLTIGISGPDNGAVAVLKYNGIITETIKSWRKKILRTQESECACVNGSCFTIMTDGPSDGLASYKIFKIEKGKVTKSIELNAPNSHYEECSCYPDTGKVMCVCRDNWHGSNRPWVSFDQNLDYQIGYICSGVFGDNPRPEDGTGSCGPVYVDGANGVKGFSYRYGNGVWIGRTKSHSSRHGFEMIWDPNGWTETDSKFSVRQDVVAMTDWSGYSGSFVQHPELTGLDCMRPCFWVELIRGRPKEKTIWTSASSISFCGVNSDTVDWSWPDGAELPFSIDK

In [1], `O=S(=O)(O)c1cc(N=C=S)ccc1/C=C/c1ccc(N=C=S)cc1S(=O)(=O)O` had a concentration for half-maximal inhibition (IC50) of 20 µM.

Regarding `Oc1cc(/C=C/c2cc(O)c(O)c(O)c2)cc(O)c1O`, the CC50 in data set [2] was determined as 11.9 µM; in data set [9], 20.1 µM. Further, the EC50 is 0.74 µM in data set [3], 0.29 µM in [4] and 1.69 µM in [8]. Also, the selectivity ratio was determined as 69 in [5], 16 in data set [6] and 12 in [7].

Take `COc1cc(/C(C#N)=C\c2cc3ccccc3s2)cc(OC)c1OC`: in data set [10], the selectivity ratio is 263. In addition, in the data set with dengue virus type 2, the EC50 was 0.00722 µM. The CC50 at 72 h in data set [11] came out at 1.9 µM.

For `Oc1ccc([C@@H]2c3c(O)cc(O)cc3[C@@H]3c4c(cc(O)cc4[C@H]2[C@@H]2c4cc(O)cc5c4[C@@H](c4cc(O)cc(O)c4[C@H]2c2ccc(O)cc2)[C@H](c2ccc(O)cc2)O5)O[C@H]3c2ccc(O)cc2)cc1`, the IC50 in the data set on Human alphaherpesvirus 2 stood at 6.4 µM; in the data set on Human alphaherpesvirus 1, 2.8 µM; in the data set with Influenza A virus [12], 6.4 µM.

On to `O=C1C=C[C@]23[C@H](C1)Oc1cccc4c1[C@H]2[C@H](c1cc(O)cc2c1[C@@H]4[C@H](c1ccc(O)cc1)O2)[C@@H](c1cc(O)cc2c1[C@@H](c1cc(O)cc(O)c1)[C@H](c1ccc(O)cc1)O2)[C@@H]3c1ccc(O)cc1`, for which the IC50 came out at 6.8 µM in the data set with Human alphaherpesvirus 2 and 2.8 µM in the data set on Human alphaherpesvirus 1.

On to `COc1cc(/C=C/c2cc(O)cc(O)c2Cc2ccc(O)c(O)c2)ccc1O`, for which the IC50 is 13.1 µM in [13] and 6.17 µg/mL (≈ 16.2 µM) with Influenza A virus [15]. For the same compound, the selectivity ratio in [14] was 32.4.

For `CC(=O)CC(=O)Nc1ccc(/C=C/c2ccc(-n3nccc3O)cc2S(=O)(=O)O)c(S(=O)(=O)O)c1`, the 90% effect concentration (EC90) in data set [16] and in data set [17] was 0.5 µM in each case.

On to `COc1cc(/C(C)=C/c2cc3ccccc3[nH]2)cc(OC)c1OC`, for which the selectivity ratio in data set [10] amounted to 209. For the same compound, the EC50 with dengue virus type 2 was determined as 0.00812 µM. Further, the CC50 at 72 h in [11] was 1.7 µM.

For the compound `Oc1ccc(C2Oc3ccc(/C=C/c4cc(O)cc5c4C(c4cc(O)cc(O)c4)C(c4ccc(O)cc4)O5)cc3C2c2cc(O)cc3c2C(c2cc(O)cc(O)c2)C(c2ccc(O)cc2)O3)cc1` (stereo not given), the EC50 in the data set on Hepatitis C virus [18] is 0.003 µM; with Hepatitis C virus [19], 0.006 µM; in the data set with Hepatitis C virus [21] it was 0.003 µM; in the data set on Hepatitis C virus [22], 0.001 µM. For the same compound, the CC50 in data set [20] was > 10 µM.

These data come from ChEMBL document CHEMBL5233255, “Natural and nature-inspired stilbenoids as antiviral agents” (Eur J Med Chem, 2020).
